pIC50: −log10 of the molar value.
Biological target: T1, hERG channel (Homo sapiens, UniProt Q12809)
T1 construct: expressed in transfected cells
Experiment: hERG channel inhibition assay (patch-clamp, CHO hERG cells)
Type: cell-based
Details: whole-cell patch-clamp; for IC20: human, CHO cells stably expressing hERG
Method: hERG Channel Inhibition Assay
The hERG K^+ channels were cloned in humans and stably expressed in a CHO (Chinese hamster ovary) cell line. CHOhERG cells were used for patch-clamp (voltage-clamp, whole-cell) experiments. Cells were stimulated by a voltage pattern to activate hERG channels and conduct IKhERG currents (rapid delayed outward rectifier potassium current of the hERG channel). After the cells were stabilized for a few minutes, the amplitude and kinetics of IKhERG were recorded at a stimulation frequency of 0.1 Hz (6 bpm). Thereafter, the test compound was added to the preparation at increasing concentrations. For each concentration, an attempt was made to reach a steady-state effect, usually, this was achieved within 3-10 min at which time the next highest concentration was applied. The amplitude and kinetics of IKhERG are recorded in each concentration of the drug which were compared to the control values (taken as 100%). (references: Redfern W S, Carlsson L, Davis A S, Lynch W G, MacKenzie I, Palethorpe S, Siegl P K, Strang I, Sullivan A T, Wallis R, Camm A J, Hammond T G. 2003; Relationships between preclinical cardiac electrophysiology, clinical QT interval prolongation and torsade de pointes for a broad range of drugs: evidence for a provisional safety margin in drug development. Cardiovasc. Res. 58:32-45, Sanguinetti M C, Tristani-Firouzi M. 2006; hERG potassium channels and cardiac arrhythmia. Nature 440:463-469, Webster R, Leishman D, Walker D. 2002; Towards a drug concentration effect relationship for QT prolongation and torsades de pointes. Curr. Opin. Drug Discov. Devel. 5:116-26).

T1 sequence (Q12809 whole entry): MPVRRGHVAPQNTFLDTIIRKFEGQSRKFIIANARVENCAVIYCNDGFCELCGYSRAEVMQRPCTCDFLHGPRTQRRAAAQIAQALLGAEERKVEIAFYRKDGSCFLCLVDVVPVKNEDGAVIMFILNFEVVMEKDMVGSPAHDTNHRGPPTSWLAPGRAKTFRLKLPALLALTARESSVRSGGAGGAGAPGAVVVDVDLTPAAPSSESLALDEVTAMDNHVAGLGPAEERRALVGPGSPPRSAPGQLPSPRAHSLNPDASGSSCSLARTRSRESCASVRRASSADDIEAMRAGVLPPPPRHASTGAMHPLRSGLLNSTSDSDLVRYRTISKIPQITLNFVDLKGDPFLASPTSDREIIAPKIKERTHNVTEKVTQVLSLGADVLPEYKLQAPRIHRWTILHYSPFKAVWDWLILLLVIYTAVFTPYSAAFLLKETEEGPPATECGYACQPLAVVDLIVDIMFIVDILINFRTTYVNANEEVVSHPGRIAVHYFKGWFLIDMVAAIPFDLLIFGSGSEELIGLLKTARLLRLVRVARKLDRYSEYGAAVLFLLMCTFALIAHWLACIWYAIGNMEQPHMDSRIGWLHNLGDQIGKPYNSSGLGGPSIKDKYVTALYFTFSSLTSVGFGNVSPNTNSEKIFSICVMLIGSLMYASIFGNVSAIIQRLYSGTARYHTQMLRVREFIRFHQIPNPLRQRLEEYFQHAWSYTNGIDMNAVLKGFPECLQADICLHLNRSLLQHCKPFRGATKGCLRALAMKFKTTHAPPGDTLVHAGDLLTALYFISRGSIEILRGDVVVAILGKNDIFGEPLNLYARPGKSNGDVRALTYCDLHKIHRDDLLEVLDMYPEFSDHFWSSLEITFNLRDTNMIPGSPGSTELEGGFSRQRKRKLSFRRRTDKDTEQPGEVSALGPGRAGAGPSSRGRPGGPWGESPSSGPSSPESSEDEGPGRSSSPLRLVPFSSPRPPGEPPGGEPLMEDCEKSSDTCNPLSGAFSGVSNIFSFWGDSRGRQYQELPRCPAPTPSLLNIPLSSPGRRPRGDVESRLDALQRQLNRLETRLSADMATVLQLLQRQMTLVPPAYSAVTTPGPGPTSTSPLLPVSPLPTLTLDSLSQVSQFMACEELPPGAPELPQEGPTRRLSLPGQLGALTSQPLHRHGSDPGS

Row | SMILES | IC20 [µM] | pIC50
1 | C[C@@H]1CN(c2ccc(C#N)c3ncccc23)C[C@@H]2CCN(c3cc4c(cn3)CNCC4)CCN21 [Example 7, 5-[(4R,10aS)-4-methyl-8-(5,6,7,8-tetrahydro-2,7-naphthyridin-3-yl)-1,3,4,6,7,9,10,10a-octahydropyrazino[1,2-d][1,4]diazepin-2-yl]quinoline-8-carbonitrile] | > 10 | < 4.70
2 | C[C@@H]1CN(c2ccc(C#N)c3ncccc23)C[C@@H]2CCN(Cc3cnc4c(c3)CNCC4)CCN21 [Example 10, 5-[(4R,10aS)-4-methyl-8-(5,6,7,8-tetrahydro-1,6-naphthyridin-3-ylmethyl)-1,3,4,6,7,9,10,10a-octahydropyrazino[1,2-d][1,4]diazepin-2-yl]quinoline-8-carbonitrile] | > 10 | < 4.70
3 | C[C@@H]1CN(c2ccc(C#N)c3ncccc23)C[C@@H]2CCN(Cc3cnc(N4CCNCC4)cn3)CCN21 [Example 15, 5-[(4R,10aS)-4-methyl-8-[(5-piperazin-1-ylpyrazin-2-yl)methyl]-1,3,4,6,7,9,10,10a-octahydropyrazino[1,2-d][1,4]diazepin-2-yl]quinoline-8-carbonitrile] | > 10 | < 4.70

Source: patent publication US12421240B2, “Hydropyrazino[1,2-d][1,4]diazepine compounds for the treatment of autoimmune disease” (Hoffmann-La Roche Inc., priority 2019, dated 2025)
